Earlier results, collected in patent publication US20240226080A1, “Pharmaceutical Mixture Comprising Amorphous Pitolisant” (Alfred E. Tiefenbacher GmbH & Co. KG, priority 2022, published 2024).
Where a name gives a salt, the structure may show the parent alone.

Legend:
[1] = 23° C.; listed as oxalate salt
[2] = for Solubility (% w/v) Water room T: room temperature

| SMILES | aqueous solubility [1] | Solubility (% w/v) pH 4.5 [2] | Solubility (% w/v) pH 7.4 [2] | Solubility (% w/v) Water room T [2] |
| --- | --- | --- | --- | --- |
| Clc1ccc(CCCOCCCN2CCCCC2)cc1 [Hydrogen oxalate, 1-[3-[3-(4-chlorophenyl)propoxy]propyl]-piperidine] | 25 mg/mL | 1-3 % w/v | 3-10 % w/v | 1-3 % w/v |
| Clc1ccc(CCCOCCCN2CCCCC2)cc1 [Monohydrochloride, 1-[3-[3-(4-chlorophenyl)propoxy]propyl]-piperidine] |  | >100 % w/v | >100 % w/v | >100 % w/v |
